Patent US6384007B1, “Method and composition for enhancing the activity of an enzyme” (Unilever Home & Personal USA division of Conopco, Inc., priority 1999, dated 2002)

What was measured:
[1] = Bleaching of tomato stains on cotton swatches (Example 1); details: detergent wash solution 2 g/l, 1 hour at 30° C
Procedure: The potential of the enhancer, Ethanedioic acid, 2-[(4-aminophenyl)sulfonyl)hydrazide-2-phenylhydrazide, to boost the bleach performance of phenol oxidizing enzyme was assessed by washing cotton swatches soiled with tomato stains
Purified phenol oxidizing enzyme from Acremonium murorum was added to the wash solution at 100 mg/l. The enzyme from Acremonium murorum is described in WO-A-00/05349 (Unilever). The enhancer was dosed at 250 μM. The following formulation was used as wash solution (2 g/l): […]
The swatches were washed during 1 hour at 30° C. After the wash, the swatches were tumble-dried and the reflectance spectra were measured using a Minolta spectrometer. The color differences between the swatch before and after the wash data were expressed in the CIELAB L*a*b* color space. In this color space, L* indicates lightness and a* and b* are the chromaticity coordinates. Color differences between two swatches are expressed as ΔE, which is calculated from the following equation:
ΔE={square root over (ΔL^2+Δa^2+Δb^2+L )}
Table 1: Stain bleach performance of the phenol oxidizing enzyme/enhancer system on tomato stains in the presence of different enhancers.

[2] = Bleaching of tomato stains on cotton swatches (Example 2); details: enhancer 250 μM + enzyme 20 mg/l; detergent formulation pH 9; 30 minutes at 30 C
Procedure: Stain bleach experiments were performed as in Example 1, except that 20 mg/l enzymes was used. The detergent formulation was set at pH 9, and the swatches washed during 30 minutes at 30 C.
Table 2: Stain bleach performance of the phenol oxidizing enzyme/enhancer system on tomato stains in the presence of the enzymatic bleach system.

Nc1ccc(S(=O)(=O)NNC(=O)C(=O)NNc2ccccc2)cc1 [enhancer, Ethanedioic acid, 2-[(4-aminophenyl)sulfonyl)hydrazide-2-phenylhydrazide]
ΔE (CIELAB colour difference of swatch before and after wash), wash with enzyme and enhancer added ([1]; enhancer 250 μM + phenol oxidizing enzyme from Acremonium murorum 100 mg/l): ΔE = 11.9 | ΔE (CIELAB colour difference of swatch before and after wash), wash with enhancer only ([1]; enhancer 250 μM, no enzyme): ΔE = 9.1 | ΔE (CIELAB colour difference of swatch before and after wash), wash with enzyme and enhancer added [2]: ΔE = 10.6
